Patent US11384055B2 (BIOMARIN PHARMACEUTICAL INC., priority 2017, dated 2022)

target: T1, Human GO (Homo sapiens, UniProt Q9UJM8); test: GO enzymatic assay (coupled fluorescence/HRP assay, glycolate substrate); format: biochemical; conditions: Table 2; read-out: Range (range of IC50 values calculated from the enzymatic assays)
T1 construct: purchased Novus Biologicals NBP1-72412
T1 sequence (Q9UJM8 1-370): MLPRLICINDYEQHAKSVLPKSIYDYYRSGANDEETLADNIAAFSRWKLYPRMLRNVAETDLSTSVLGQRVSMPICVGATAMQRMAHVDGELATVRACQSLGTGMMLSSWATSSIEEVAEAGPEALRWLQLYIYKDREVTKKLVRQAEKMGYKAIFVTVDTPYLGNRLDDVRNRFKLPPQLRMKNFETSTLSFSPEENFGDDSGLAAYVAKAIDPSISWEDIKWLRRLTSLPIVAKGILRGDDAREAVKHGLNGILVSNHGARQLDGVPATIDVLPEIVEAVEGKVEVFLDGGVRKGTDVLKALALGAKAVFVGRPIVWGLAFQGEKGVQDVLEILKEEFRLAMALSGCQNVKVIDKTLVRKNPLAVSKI
Method in brief: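 Coupled HRP/fluorescence read-out of glycolate oxidation by human GO in 50 mM potassium phosphate buffer (pH 7). Inhibitors added across a concentration range.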

`CCN(Cc1nn[nH]c1C(=O)O)c1ccc(Cl)c(Cl)c1` [Compound 185, 4-(((3,4-dichlorophenyl)(ethyl)amino)methyl)-1H-1,2,3-triazole-5-carboxylic acid] and `CCN(Cc1nn[nH]c1C(=O)O)c1ccc2cc(Cl)ccc2c1` [Compound 187, 4-(((6-chloronaphthalen-2-yl)(ethyl)amino)methyl)-1H-1,2,3-triazole-5-carboxylic acid] fall in the same range of IC50: 100 to 1000 nM for the first, 100 to 1000 nM for the second.

First: O=C(O)c1[nH]nnc1Nc1cnc2cc(Cl)ccc2c1 [Compound 186, 4-((7-chloroquinolin-3-yl)amino)-1H-1,2,3-triazole-5-carboxylic acid]
Second: O=C(O)c1[nH]nnc1-c1cnc2cc(Cl)ccc2c1 [Compound 216, 4-(7-chloroquinolin-3-yl)-1H-1,2,3-triazole-5-carboxylic acid 2,2,2-trifluoroacetate]
The IC50 of the first is higher: 1000 to 10000 nM for the first, < 100 nM for the second.

`O=C(O)c1[nH]nnc1CN1CCCc2cc(Cl)ccc21` [Compound 188, 4-((6-chloro-3,4-dihydroquinolin-1(211)-yl)methyl)-1H-1,2,3-triazole-5-carboxylic acid] and `CC(C)N1CCCc2cc(-c3nn[nH]c3C(=O)O)ccc21` [Compound 206, 4-(1-isopropyl-1,2,3,4-tetrahydroquinolin-6-yl)-1H-1,2,3-triazole-5-carboxylic acid 2,2,2-trifluoroacetate] fall in the same range of IC50: 1000 to 10000 nM for the first, 1000 to 10000 nM for the second.

`CCN(Cc1nn[nH]c1C(=O)O)c1ccc(-c2ccc(OC(F)(F)F)cc2)cc1` [Compound 189, 4-((ethyl(4′-(trifluoromethoxy)-[1,1′-biphenyl]-4-yl)amino)methyl)-1H-1,2,3-triazole-5-carboxylic acid 2,2,2-trifluoroacetate] and `O=C(O)c1[nH]nnc1CN(Cc1ccccc1)c1ccc(-c2ccc(OC(F)(F)F)cc2)cc1` [Compound 196, 4-((benzyl(4′-(trifluoromethoxy)-[1,1′-biphenyl]-4-yl)amino)methyl)-1H-1,2,3-triazole-5-carboxylic acid 2,2,2-trifluoroacetate] fall in the same range of IC50: 100 to 1000 nM for the first, 100 to 1000 nM for the second.

`O=C(O)c1[nH]nnc1NC1Cc2cc(Cl)c(Cl)cc2C1` [Compound 190, 4-((5,6-dichloro-2,3-dihydro-1H-inden-2-yl)amino)-1H-1,2,3-triazole-5-carboxylic acid 2,2,2-trifluoroacetate] and `O=C(O)c1[nH]nnc1-c1cc(Cl)c(Cl)cn1` [Compound 207, 4-(4,5-dichloropyridin-2-yl)-1H-1,2,3-triazole-5-carboxylic acid] fall in the same range of IC50: 100 to 1000 nM for the first, 100 to 1000 nM for the second.

First: O=C(O)c1[nH]nnc1CN(Cc1ccccc1)c1ccc(C2CCCCC2)cc1 [Compound 194, 4-((benzyl(4-cyclohexylphenyl)amino)methyl)-1H-1,2,3-triazole-5-carboxylic acid]
Second: O=C(O)c1[nH]nnc1CN(Cc1ccc(OC(F)(F)F)cc1)c1ccc(Cl)cc1 [Compound 195, 4-(((4-chlorophenyl)(4-(trifluoromethoxy)benzyl)amino)methyl)-1H-1,2,3-triazole-5-carboxylic acid]
The IC50 of the first is higher: 1000 to 10000 nM for the first, 100 to 1000 nM for the second. The second is the more potent here.

`O=C(O)c1[nH]nnc1C(F)(F)c1ccc(-c2ccc(Cl)cc2)c(Cl)c1` [Compound 197, 4-((2,4′-dichloro-[1,1′-biphenyl]-4-yl)difluoromethyl)-1H-1,2,3-triazole-5-carboxylic acid 2,2,2-trifluoroacetate] and `O=C(O)c1[nH]nnc1C(F)(F)c1ccc(-c2ccc(Cl)c(Cl)c2)cc1` [Compound 201, 4-((3′,4′-dichloro-[1,1′-biphenyl]-4-yl)difluoromethyl)-1H-1,2,3-triazole-5-carboxylic acid 2,2,2-trifluoroacetate] cannot be ordered by IC50: < 100 nM for the first, < 100 nM for the second.

`O=C(O)c1[nH]nnc1C(F)(F)c1ccc(-c2ccc(OC(F)(F)F)cc2)cc1` [Compound 198, 4-(difluoro(4′-(trifluoromethoxy)-[1,1′-biphenyl]-4-yl)methyl)-1H-1,2,3-triazole-5-carboxylic acid 2,2,2-trifluoroacetate] and `O=C(O)c1[nH]nnc1C(F)(F)c1ccc(-c2ccc(Cl)cc2)cc1` [Compound 200, 4-((4′-chloro-[1,1′-biphenyl]-4-yl)difluoromethyl)-1H-1,2,3-triazole-5-carboxylic acid 2,2,2-trifluoroacetate] cannot be ordered by IC50: < 100 nM for the first, < 100 nM for the second.

Compared with `O=C(O)c1[nH]nnc1C(F)(F)c1ccc2cc(Cl)ccc2c1` [Compound 199, 4-((6-chloronaphthalen-2-yl)difluoromethyl)-1H-1,2,3-triazole-5-carboxylic acid], `O=C(O)c1[nH]nnc1-c1cc2ccc(C(F)(F)F)cc2cn1` [Compound 215, 4-(7-(trifluoromethyl)isoquinolin-3-yl)-1H-1,2,3-triazole-5-carboxylic acid] is higher in IC50: < 100 nM for the first, 100 to 1000 nM for the second.

Compared with `O=C(O)c1[nH]nnc1-c1ccc(-c2ccc(Cl)cc2)c(OC(F)(F)F)c1` [Compound 203, 4-(4′-chloro-2-(trifluoromethoxy)-[1,1′-biphenyl]-4-yl)-1H-1,2,3-triazole-5-carboxylic acid], `O=C(O)c1[nH]nnc1-c1cc2cc(OC(F)(F)F)ccc2cn1` [Compound 211, 4-(6-(trifluoromethoxy)isoquinolin-3-yl)-1H-1,2,3-triazole-carboxylic acid] is higher in IC50: < 100 nM for the first, 1000 to 10000 nM for the second.

First: CC(C)C(=O)OCOC(=O)c1[nH]nnc1-c1ccc2cc(Cl)ccc2n1 [Compound 204, (isobutyryloxy)methyl 4-(6-chloroquinolin-2-yl)-1H-1,2,3-triazole-5-carboxylate]
Second: O=C(O)c1[nH]nnc1-c1ccc(Cl)cn1 [Compound 208, 4-(5-chloropyridin-2-yl)-1H-1,2,3-triazole-5-carboxylic acid 2,2,2-trifluoroacetate]
The IC50 of the first is higher: 1000 to 10000 nM for the first, 100 to 1000 nM for the second. The second is the more potent here.

Compared with `CC(=O)NCCOc1ccc(-c2nn[nH]c2C(=O)O)cc1` [Compound 209, 4-(4-(2-acetamidoethoxy)phenyl)-1H-1,2,3-triazole-5-carboxylic acid], `O=C(O)c1[nH]nnc1-c1ccc(Cl)c(OCC2CC2)c1` [Compound 218, 4-(4-chloro-3-(cyclopropylmethoxy)phenyl)-1H-1,2,3-triazole-5-carboxylic acid] is lower in IC50: 1000 to 10000 nM for the first, 100 to 1000 nM for the second. The second is the more potent here.

First: O=C(O)c1[nH]nnc1-c1cc2ccc(F)cc2cn1 [Compound 210, 4-(7-fluoroisoquinolin-3-yl)-1H-1,2,3-triazole-5-carboxylic acid 2,2,2-trifluoroacetate]
Second: O=C(O)c1[nH]nnc1-c1cc2cc(F)ccc2cn1 [Compound 213, 4-(6-fluoroisoquinolin-3-yl)-1H-1,2,3-triazole-5-carboxylic acid 2,2,2-trifluoroacetate]
The IC50 of the first is lower: 100 to 1000 nM for the first, 1000 to 10000 nM for the second.

`O=C(O)c1[nH]nnc1-c1ccc2c(n1)CCCC2` [Compound 212, 4-(5,6,7,8-tetrahydroquinolin-2-yl)-1H-1,2,3-triazole-5-carboxylic acid] and `O=C(O)c1[nH]nnc1-c1cc(OCC2CC2)ccc1Cl` [Compound 219, 4-(2-chloro-5-(cyclopropylmethoxy)phenyl)-1H-1,2,3-triazole-5-carboxylic acid] fall in the same range of IC50: 1000 to 10000 nM for the first, 1000 to 10000 nM for the second.

Compared with `O=C(O)c1[nH]nnc1-c1cc2ccc(OC(F)(F)F)cc2cn1` [Compound 214, 4-(7-(trifluoromethoxy)isoquinolin-3-yl)-1H-1,2,3-triazole-5-carboxylic acid], `O=C(O)c1[nH]nnc1-c1cc(Cl)cc(OCC2CC2)c1` [Compound 217, 4-(3-chloro-5-(cyclopropylmethoxy)phenyl)-1H-1,2,3-triazole-5-carboxylic acid 2,2,2-trifluoroacetate] is lower in IC50: 100 to 1000 nM for the first, < 100 nM for the second.
